Laboratory results taken from EP3789378A1, “PIPERIDINES OR PIPERIDONES SUBSTITUTED WITH UREA AND HETEROARYL” (Grünenthal GmbH, priority 2019, dated 2021).
Structures can show the parent of a compound that is named as a salt.

Target: T1, h FPR2 (Homo sapiens, UniProt P25090)
T1 construct: expressed in transfected cells
T1 sequence (P25090 1-351): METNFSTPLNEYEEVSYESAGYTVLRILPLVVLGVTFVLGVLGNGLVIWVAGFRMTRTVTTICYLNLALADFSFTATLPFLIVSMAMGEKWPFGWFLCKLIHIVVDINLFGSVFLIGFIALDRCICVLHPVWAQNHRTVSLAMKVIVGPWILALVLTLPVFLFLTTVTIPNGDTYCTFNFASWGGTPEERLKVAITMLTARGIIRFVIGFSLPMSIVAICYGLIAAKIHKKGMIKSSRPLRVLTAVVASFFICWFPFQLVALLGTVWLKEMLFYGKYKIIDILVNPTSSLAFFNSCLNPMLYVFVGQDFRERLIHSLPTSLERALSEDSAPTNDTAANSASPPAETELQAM
Assay: Agonistic activity in hFPR2-Aq-CHO cells (FLIPR Calcium 5 fluorescence assay)
Type: cell-based
Details: 11 point half log dilution, final assay concentration from 10µM
In short: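 EC50 reflects the compound-evoked rise in Calcium 5 fluorescence over basal, recorded for 5 min on FLIPR and compared with no-compound wells. Dye-loaded hFPR2-Aq-CHO cells received half-log dilutions from 10 µM to 100 pM final in pH 7.4 HBSS buffer.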

Compound	EC50 [nM]
COc1ccc([C@@H]2CN(CC3COC3)CC[C@H]2NC(=O)Nc2cc(C)ns2)nc1 (relative stereo) [Ex-204, trans-1-(5-methoxy-1'-oxetan-3-ylmethyl-1',2',3',4',5',6'-hexahydro-[2,3']bipyridinyl-4'-yl)-3-(3-methyl-isothiazol-5-yl)-urea]	4
COc1ccc([C@@H]2CN(CCS(C)(=O)=O)CC[C@H]2NC(=O)Nc2ccccc2)nc1 (relative stereo) [Ex-160, trans-1-[3-(5-Methoxy-pyridin-2-yl)-1-(2-methylsulfonyl-ethyl)-piperidin-4-yl]-3-phenyl-urea]	88
Cc1cc(NC(=O)N[C@@H]2CCN(c3ccc(F)cc3)C[C@H]2c2ccc(Cl)cn2)sn1 (relative stereo) [Ex-26, trans-1-[5-chloro-1'-(4-fluoro-phenyl)-1',2',3',4',5',6'-hexahydro-[2,3']bipyridinyl-4'-yl]-3-(3-methyl-isothiazol-5-yl)-urea]	1
COc1ccc([C@@H]2CN(CC3(O)COC3)CC[C@H]2NC(=O)Nc2cc(C)ns2)nc1 (relative stereo) [Ex-217, trans-1-[1'-(3-hydroxy-oxetan-3-ylmethyl)-5-methoxy-1',2',3',4',5',6'-hexahydro-[2,3']bipyridinyl-4'-yl]-3-(3-methyl-isothiazol-5-yl)-urea]	6
COc1ccc([C@@H]2CN(c3ccncn3)CC[C@H]2NC(=O)Nc2cc(C)ns2)cn1 (relative stereo) [Ex-4, trans-1-(6'-methoxy-1-pyrimidin-4-yl-1,2,3,4,5,6-hexahydro-[3,3']bipyridinyl-4-yl)-3-(3-methyl-isothiazol-5-yl)-urea]	11
COc1ccc([C@@H]2CN(C(=O)CN(C)C)CC[C@H]2NC(=O)Nc2cc(C)ns2)nc1 (relative stereo) [Ex-118, trans-1-[1-(2-Dimethylamino-acetyl)-3-(5-methoxy-pyridin-2-yl)-piperidin-4-yl]-3-(3-methyl-isothiazol-5-yl)-urea]	5
COc1ccc([C@@H]2CN(CCC(N)=O)CC[C@H]2NC(=O)Nc2ccc(Cl)cc2)nc1 (relative stereo) [Ex-142, trans-3-[4-[[(4-Chlorophenyl)-carbamoyl]amino]-3-(5-methoxy-pyridin-2-yl)-piperidin-1-yl]-propionamide]	1.1
COc1ccc([C@@H]2CN(C3COC3)CC[C@H]2NC(=O)Nc2ccc(Cl)cc2)nc1 (relative stereo) [Ex-108, trans-1-(4-chloro-phenyl)-3-(5-methoxy-1'-oxetan-3-yl-1',2',3',4',5',6'-hexahydro-[2,3']bipyridinyl-4'-yl)-urea]	7
Cc1cc(NC(=O)N[C@@H]2CCN(c3ccncn3)C[C@H]2c2ccc(Cl)cn2)sn1 (single isomer, unassigned) [Ex-16, trans-1-(5-chloro-1'-pyrimidin-4-yl-1',2',3',4',5',6'-hexahydro-[2,3']bipyridinyl-4'-yl)-3-(3-methyl-isothiazol-5-yl)-urea]	0.9
COc1ccc([C@@H]2CN(C(=O)CCO)CC[C@H]2NC(=O)Nc2ccc(Cl)cc2)nc1 (relative stereo) [Ex-102, trans-1-(4-chloro-phenyl)-3-[1'-(3-hydroxy-propionyl)-5-methoxy-1',2',3',4',5',6'-hexahydro-[2,3']bipyridinyl-4'-yl]-urea]	27
COc1ccc([C@@H]2CN(CCN(C)C)CC[C@H]2NC(=O)Nc2ccc(Cl)cc2)nc1 (relative stereo) [Ex-136, trans-1-(4-Chlorophenyl)-3-[1-[2-(dimethylamino)ethyl]-3-(5-methoxy-pyridin-2-yl)-piperidin-4-yl]-urea]	1.4
Cc1cncc(CN2CC[C@@H](NC(=O)Nc3ccc(Cl)cc3)[C@H](c3ccc(Cl)s3)C2)c1 (relative stereo) [Ex-72, trans-1-(4-chlorophenyl)-3-(3-(5-chlorothiophen-2-yl)-1-((5-methylpyridin-3-yl)methyl)piperidin-4-yl)urea]	2

More lines, now with the values ahead:

EC50 [nM]	Compound
0.8	COc1ccc([C@@H]2CN(c3ccc(F)cc3)CC[C@H]2NC(=O)Nc2ccc(Cl)cc2)nc1 (relative stereo) [Ex-18, trans-1-(4-chloro-phenyl)-3-[1'-(4-fluoro-phenyl)-5-methoxy-1',2',3',4',5',6'-hexahydro-[2,3']bipyridinyl-4'-yl]-urea]
0.7	COc1cnc([C@@H]2CN(CC(C)(C)O)CC[C@H]2NC(=O)Nc2ccc(Cl)cc2)c(F)c1 (relative stereo) [Ex-208, trans-1-(4-chloro-phenyl)-3-[3-fluoro-1'-(2-hydroxy-2-methyl-propyl)-5-methoxy-1',2',3',4',5',6'-hexahydro-[2,3']bipyridinyl-4'-yl]-urea]
0.6	COc1ccc([C@@H]2CN(Cc3cnc(C)nc3)CC[C@H]2NC(=O)Nc2ccc(Cl)cc2)nc1 (relative stereo) [Ex-61, trans-1-(4-chlorophenyl)-3-[3-(5-methoxy-2-pyridyl)-1-[(2-methylpyrimidin-5-yl)methyl]-4-piperidyl]urea]
0.5	COc1ccc([C@@H]2CN(C(=O)c3cnccc3C)CC[C@H]2NC(=O)Nc2ccc(Cl)cc2)nc1 (single isomer, unassigned) [Ex-52, trans-1-(4-chlorophenyl)-3-[3-(5-methoxypyridin-2-yl)-1-[(4-methylpyridin-3-yl)carbonyl]piperidin-4-yl]urea]
0.5	COc1cnc([C@@H]2CN(CCO)CC[C@H]2NC(=O)Nc2ccc(Cl)cc2)c(F)c1 (relative stereo) [Ex-199, trans-1-(4-chloro-phenyl)-3-[3-fluoro-1'-(2-hydroxy-ethyl)-5-methoxy-1',2',3',4',5',6'-hexahydro-[2,3']bipyridinyl-4'-yl]-urea]
0.4	O=C(Nc1ccc(Cl)cc1)N[C@@H]1CCN(Cc2ncccn2)C[C@H]1c1ccc(Cl)s1 (single isomer, unassigned) [Ex-46, trans-1-(4-chlorophenyl)-3-[3-(5-chlorothiophen-2-yl)-1-(pyrimidin-2-ylmethyl)piperidin-4-yl]urea]
0.4	COc1ccc([C@@H]2CN(CC3CCOCC3)CC[C@H]2NC(=O)Nc2ccc(Cl)cc2)nc1 (single isomer, unassigned) [Ex-51, trans-1-(4-chlorophenyl)-3-[3-(5-methoxypyridin-2-yl)-1-(oxan-4-ylmethyl)piperidin-4-yl]urea]
0.4	COc1cnc([C@@H]2CN(CC3COC3)CC[C@H]2NC(=O)Nc2ccc(Cl)cc2)c(F)c1 (relative stereo) [Ex-200, trans-1-(4-chloro-phenyl)-3-(3-fluoro-5-methoxy-1'-oxetan-3-ylmethyl-1',2',3',4',5',6'-hexahydro-[2,3']bipyridinyl-4'-yl)-urea]
0.4	COc1ccc([C@@H]2CN(c3ccncn3)CC[C@H]2NC(=O)Nc2ccc(Cl)cc2)nc1 (relative stereo) [Ex-7, trans-1-(4-chloro-phenyl)-3-(5-methoxy-1'-pyrimidin-4-yl-1',2',3',4',5',6'-hexahydro-[2,3']bipyridinyl-4'-yl)-urea]
0.2	O=C(Nc1ccc(Cl)cc1)N[C@@H]1CCN(CC2CCNCC2)C[C@H]1c1ccc(Cl)s1 (single isomer, unassigned) [Ex-83, trans-1-(4-chlorophenyl)-3-[3-(5-chlorothiophen-2-yl)-1-(piperidin-4-ylmethyl)piperidin-4-yl]urea dihydrochloride]
0.09	COc1ccc([C@@H]2CN(Cc3cc(C)on3)CC[C@H]2NC(=O)Nc2ccc(Cl)cc2)nc1 (single isomer, unassigned) [Ex-30, trans-1-(4-chlorophenyl)-3-[3-(5-methoxypyridin-2-yl)-1-[(5-methyl-1,2-oxazol-3-yl)methyl]piperidin-4-yl]urea]
0.09	COc1ccc([C@H]2CN(Cc3cncc(F)c3)CC[C@@H]2NC(=O)Nc2ccc(Cl)cc2)nc1 (relative stereo) [Ex-68, trans-(4-chlorophenyl)-3-[1-[(5-fluoropyridin-3-yl)methyl]-3-(5-methoxypyridin-2-yl)piperidin-4-yl]urea]
0.07	COc1ccc([C@@H]2CN(Cc3cncc(Cl)c3)CC[C@H]2NC(=O)Nc2ccc(Cl)cc2)nc1 (relative stereo) [Ex-69, trans-1-(4-chlorophenyl)-3-[1-[(5-chloropyridin-3-yl)methyl]-3-(5-methoxypyridin-2-yl)piperidin-4-yl]urea]
0.03	COc1ccc([C@@H]2CN(Cc3ccn(S(C)(=O)=O)n3)CC[C@H]2NC(=O)Nc2ccc(Cl)cc2)nc1 (single isomer, unassigned) [Ex-43, trans-1-(4-chlorophenyl)-3-[1-[(1-methanesulfonyl-1H-pyrazol-3-yl)methyl]-3-(5-methoxypyridin-2-yl)piperidin-4-yl]urea]

Same assay, conditions: agonistic response at 0.1µM

activation at 0.1 µM [%]	Compound
3	COc1ccc([C@@H]2CN(CC(N)=O)CC[C@H]2NC(=O)Nc2ccc(Cl)cc2)nc1 (relative stereo) [Ex-171, trans-2-[4-[[(4-Chlorophenyl)-carbamoyl]amino]-3-(5-methoxy-pyridin-2-yl)-piperidin-1-yl]-acetamide]
10	Cc1cc(CN2CC[C@@H](NC(=O)Nc3ccc(Cl)cc3)[C@H](c3ccc(Cl)s3)C2)no1 (relative stereo) [Ex-45, trans-1-(4-chlorophenyl)-3-[3-(5-chlorothiophen-2-yl)-1-[(5-methyl-1,2-oxazol-3-yl)methyl]piperidin-4-yl]urea]
